Laboratory results as given in patent publication US6569842B2 (Board of Trustees of the University of Illinois, The, priority 2000, dated 2003).
In brackets after ≈: the same amount, converted by molar mass.

Legend:
A431 (squamous cells) = assay: Cytotoxicity against cultured A431 cells (SRB); format: cell-based, human
Procedure: (§1) Cytotoxicity of the crude extracts and purified compounds was determined in a number of cultured human cancer cell lines. Table 1 sets forth the various types of cancer cells evaluated using Method A. The cells were cultured in appropriate media and under standard conditions. To maintain logarithmic growth, the media were changed 24 hours prior to cytotoxic assays. On the day of the assay, the cells were harvested by trypsinization, counted, diluted in media, and added to 96-well plates containing test compounds dissolved in DMSO. The final DMSO concentration was 0.05%.
(§2) In each of Methods A-C, the plates were incubated for three days. Following the incubation period, the cells were fixed and stained with sulforhodamine B (SRB) dye. The bound dye was liberated with Tris base, and the OD515 (optical density at 515 nm) was measured on an ELISA reader. The growth of the betulinic acid-treated cells was determined by the OD515 values, and the growth was compared to the OD515 values of […] control cells of Methods A-C. Dose response studies were performed to generate ED50 values. As used herein, the term OD515 is defined as optical density at 515 nm, and the term ED50 is defined as the concentration of a compound required to reduce cell number by 50%.

UISO MEL-1 cells = assay: In vivo study, MEL-1 tumors in athymic mice; settings: 5, 50 or 250 mg/kg/dose IP betulinic acid/PVP every fourth day, six doses
Procedure: In particular, four-week-old athymic mice were injected subcutaneously in the right flank with 5.0×10^8 UISO MEL-1 cells. Drug treatment was initiated on the day following tumor cell injection and continued every fourth day for a total of six doses. […] The mice were weighed, and tumors were measured with a micrometer every third day throughout the study. Treated animals were sacrificed and autopsied on day 41, when the mean tumor volume in the control mice was approximately 0.5 cm^3. The control mice then received six doses of 50 mg/kg every fourth day beginning day 41 and were sacrificed and autopsied on day 71.
The results with respect to MEL-1 cells were similar to the results with respect to MEL-2 cells.

LU-1 (lung) = assay: Cytotoxicity against cultured LU-1 cells (SRB); format: cell-based, human
Procedure: as §1, §2

MEL-2 (melanoma) [1] = assay: Cytotoxicity against cultured MEL-2 cells (SRB); format: cell-based, human
[2] = tested on: MEL-1 human melanoma cell line; assay: Cytotoxicity against cultured MEL-1 cells (SRB); format: cell-based
Procedure: as §1, §2

LNCaP (prostate) [3] = assay: Cytotoxicity against cultured LNCaP cells (SRB); format: cell-based, human
HT-1080 (sarcoma) = assay: Cytotoxicity against cultured HT-1080 cells (SRB); format: cell-based, human
Procedure: as §1, §2

BC-1 (breast) [4] = assay: Cytotoxicity against cultured BC-1 cells (SRB); format: cell-based, human; settings: Homo sapiens, BC1, 72 h; Method A, sample dissolved in DMSO; three days incubation; read-out: ED50 BC-1
Procedure: as §1
In each of Methods A-C, the plates were incubated for three days. Following the incubation period, the cells were fixed and stained with sulforhodamine B (SRB) dye. The bound dye was liberated with Tris base, and the OD515 (optical density at 515 nm) was measured on an ELISA reader. […] Dose response studies were performed to generate ED50 values. As used herein, the term OD515 is defined as optical density at 515 nm, and the term ED50 is defined as the concentration of a compound required to reduce cell number by 50%.

BC-1 (breast) [5] = assay: Cytotoxicity against cultured BC-1 cells (SRB); format: cell-based, human; settings: Method B, sample dissolved in tissue culture media
[6] = tested on: KB (human oral epidermoid carcinoma); assay: Cytotoxicity against cultured KB cells (SRB); format: cell-based
Procedure: as §1, §2

ZR-75-1 (breast) [7] = assay: Cytotoxicity against cultured ZR-75-1 cells (SRB); format: cell-based, human; settings: Homo sapiens, ZR-75-1, 72 h; Method A, sample dissolved in DMSO; three days incubation; read-out: ED50 ZR 75-1
Procedure: as §1, §2

LNCaP (prostate) [8] = assay: Cytotoxicity against cultured LNCaP cells (SRB); format: cell-based, human; settings: Method A, sample dissolved in DMSO; three days incubation
Procedure: as §1, §2

U373 (glioma) [9] = assay: Cytotoxicity against cultured U373 cells (SRB); format: cell-based, human; settings: Method A, sample dissolved in DMSO; three days incubation
Procedure: as §1, §2

[10] = tested on: MEL-4 human melanoma cell line; assay: Cytotoxicity against cultured MEL-4 cells (SRB); format: cell-based
Procedure: as §1, §2

U373 (glioma) [11] = assay: Cytotoxicity against cultured U373 cells (SRB); format: cell-based, human
COL-2 (colon) [12] = assay: Cytotoxicity against cultured COL-2 cells (SRB); format: cell-based, human; settings: Homo sapiens, Col2, 72 h, Method A, sample dissolved in DMSO; three days incubation; read-out: ED50 COL-2
Procedure: as §1, §2

[13] = tested on: MEL-3 human melanoma cell line; assay: Cytotoxicity against cultured MEL-3 cells; format: cell-based; settings: dose-response study
Procedure: as §2

ZR-75-1 (breast) [14] = assay: Cytotoxicity against cultured ZR-75-1 cells (SRB); format: cell-based, human
COL-2 (colon) [15] = assay: Cytotoxicity against cultured COL-2 cells (SRB); format: cell-based, human; settings: Method B, sample dissolved in tissue culture media
[16] = tested on: human neuroblastoma cell lines; assay: Cytotoxic activity against neuroblastoma cell lines; format: cell-based
[17] = mouse, in vivo, 500 mg/kg
Procedure: In particular, the data was derived from experiments wherein four week old athymic mice were injected subcutaneously in the right flank with 3.0×10^8 UISO MEL-2 cells. UISO MEL-2 is a cell line derived from metastatic melanoma from human pleural fluid. Drug treatment was initiated on the day following tumor cell injection and continued every fourth day for a total of six doses. […] The mice were weighed, and the tumors measured with a micrometer every other day throughout the study. All animals were sacrificed and autopsied on day 33, when the mean tumor volume in the control animals was approximately one cm^3.

[18] = 200 and 400 mg/kg doses; cited from earlier work
MEL-2 (melanoma) [19] = assay: Cytotoxicity against cultured MEL-2 cells (SRB); format: cell-based, human; settings: Homo sapiens, MEL2, 72 h, Method A, sample dissolved in DMSO; three days incubation; read-out: ED50 MEL-2
Procedure: as §1, §2

[20] = Method A, sample dissolved in DMSO, three days incubation
[21] = Method B, sample dissolved in tissue culture media
[22] = Method C, sample dissolved in 5% aqueous bovine serum albumin

For C=C(C)[C@@H]1CC[C@]2(C(=O)O)CC[C@]3(C)[C@H](CC[C@@H]4[C@@]5(C)CC[C@H](O)C(C)(C)[C@@H]5CC[C@]43C)[C@@H]12 [Betulinic acid, 3β-hydroxy-lup-20 (29)ene-28-oic acid], the “ED50 A431” value (A431 (squamous cells); [20]) was over 20 µg/mL, the “ED50 A431” value (A431 (squamous cells); [21]) was 12.1 µg/mL (≈ 26.5 µM) and the “ED50 A431” value (A431 (squamous cells); [22]) was over 20 µg/mL. The “activity against MEL-1 tumors” value (UISO MEL-1 cells) was “active”, the IC50 (LU-1 (lung); Homo sapiens, Lu1, 72 h, Method A, sample dissolved in DMSO, three days incubation, read-out: ED50 LU-1) was over 20 µg/mL and the “ED50 Lu1” value (LU-1 (lung); [21]) was 7.7 µg/mL (≈ 16.9 µM). For the same molecule, the “ED50 Mel2” value (MEL-2 (melanoma) [1]; [21]) was 0.9 µg/mL (≈ 1.97 µM), the “ED50 Mel2” value (MEL-2 (melanoma) [1]; [22]) was 1.6 µg/mL (≈ 3.5 µM) and the “ED50 MEL-1” value [2, 20] was 1.1 µg/mL (≈ 2.41 µM). The “ED50 Mel1” value [2, 21] was 0.9 µg/mL (≈ 1.97 µM), the “ED50 LNCaP” value (LNCaP (prostate) [3]; [21]) was 19.3 µg/mL (≈ 42.3 µM) and the “ED50 LNCaP” value (LNCaP (prostate) [3]; [22]) was 16.6 µg/mL (≈ 36.3 µM). For the same molecule, the IC50 (HT-1080 (sarcoma); Homo sapiens, HT-1080, 72 h, Method A, sample dissolved in DMSO, three days incubation, read-out: ED50 HT-1080) was over 20 µg/mL, the “ED50 HT” value (HT-1080 (sarcoma); [21]) was 11.3 µg/mL (≈ 24.7 µM) and the “ED50 HT” value (HT-1080 (sarcoma); [22]) was 10.0 µg/mL (≈ 21.9 µM). The IC50 (BC-1 (breast) [4]) was over 20 µg/mL, the “ED50 BC1” value (BC-1 (breast) [5]) was 11.2 µg/mL (≈ 24.5 µM) and the “ED50 KB” value [6, 21] was over 20 µg/mL. For the same molecule, the “ED50 KB” value [6, 22] was 16.6 µg/mL (≈ 36.3 µM), the IC50 (ZR-75-1 (breast) [7]) was over 20 µg/mL and the “ED50 LNCaP” value (LNCaP (prostate) [8]) was over 20 µg/mL. For the same molecule, the “ED50 U373” value (U373 (glioma) [9]) was over 20 µg/mL, the “ED50 MEL-4” value [10, 20] was 4.8 µg/mL (≈ 10.5 µM) and the “ED50 Mel4” value [10, 21] was 1.6 µg/mL (≈ 3.5 µM). The “ED50 U373” value (U373 (glioma) [11]; [21]) was 12.1 µg/mL (≈ 26.5 µM), the “ED50 U373” value (U373 (glioma) [11]; [22]) was 18.7 µg/mL (≈ 40.9 µM) and the IC50 (COL-2 (colon) [12]) was over 20 µg/mL. The “ED50 MEL-3” value [13] was 3.3 µg/mL (≈ 7.23 µM), the “ED50 ZA-75-1” value (ZR-75-1 (breast) [14]; [21]) was 6.4 µg/mL (≈ 14 µM) and the “ED50 ZA-75-1” value (ZR-75-1 (breast) [14]; [22]) was 6.9 µg/mL (≈ 15.1 µM). The “ED50 Col2” value (COL-2 (colon) [15]) was 13.3 µg/mL (≈ 29.1 µM), the “cytotoxic activity against human neuroblastoma cell lines” value [16] was “excellent cytotoxic activity” and the “acute toxicity and body weight” value [17] was “without causing acute signs of toxicity or a decrease in body weight”. The “activity in Hippocratic screen” value [18] was “inactive” and the IC50 (MEL-2 (melanoma) [19]) was about 2 µg/mL (≈ 4.38 µM).
